These results are taken from US8202889B2, “Inhibitors of bacterial IMPDH” (Vertex Pharmaceuticals Incorporated, priority 2005, dated 2012).

One assay deals with E. coli IMPDH enzyme (Escherichia coli, UniProt P0ADG7). Kind of assay: IMPDH Activity Inhibition Assay. The class given is biochemical. Particulars: for activity at 10 µM: percent remaining activity of E. coli IMPDH enzyme at 10 μM inhibitor (I) and 55 nM enzyme (E); for activity at 25 µM: percent remaining activity of E. coli IMPDH enzyme at 25 μM inhibitor (I) and 14 nM enzyme (E). The method, then:
IMP dehydrogenase activity was assayed according to the method reported by Hedstrom. [Hedstrom, L. et al., Biochemistry, 39, pp. 9804-9810 (2000), the disclosure of which is herein incorporated by reference]. Table 1 below lists the percent remaining activity of E. coli IMPDH enzyme (E) at either 25 μM inhibitor (I) and 14 nM enzyme (E) or 10 μM inhibitor (I) and 55 nM enzyme (E). “ND” means no data.

The next assay concerns bacterial IMPDH. The note with it: Hedstrom et al., Curr. Med. Chem. 1999; cited from earlier work.

Each structure is given as a SMILES string.

E. coli IMPDH enzyme, sequence (P0ADG7 whole entry): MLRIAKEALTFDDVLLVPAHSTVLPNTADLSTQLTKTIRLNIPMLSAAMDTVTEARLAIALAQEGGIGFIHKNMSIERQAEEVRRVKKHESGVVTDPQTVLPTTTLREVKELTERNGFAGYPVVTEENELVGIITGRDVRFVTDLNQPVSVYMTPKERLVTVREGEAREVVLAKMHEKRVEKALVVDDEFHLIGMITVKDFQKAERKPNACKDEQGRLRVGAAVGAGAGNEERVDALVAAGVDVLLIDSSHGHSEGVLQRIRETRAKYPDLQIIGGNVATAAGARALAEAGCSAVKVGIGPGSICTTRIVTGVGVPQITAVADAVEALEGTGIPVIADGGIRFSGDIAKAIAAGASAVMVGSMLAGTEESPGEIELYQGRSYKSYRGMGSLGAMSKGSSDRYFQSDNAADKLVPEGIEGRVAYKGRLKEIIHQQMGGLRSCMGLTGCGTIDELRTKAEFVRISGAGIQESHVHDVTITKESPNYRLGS

Consider `O=C(Nc1nccs1)c1ccc2cc(C(=O)Nc3nccs3)ccc2c1` [Compound 11], for which the activity at 10 µM on E. coli IMPDH enzyme worked out at 97%.
Turning to `COc1cc2ccccc2cc1C(=O)Nc1nc(-c2c(OC)ccc3ccccc23)cs1` [Compound 9], on E. coli IMPDH enzyme, the activity at 10 µM worked out at 100%.
On the same count and under the same terms, to `COc1ccc(-c2csc(NC(=O)c3cc4ccccc4cc3OC)n2)cc1OC` [Compound 10] belongs 73%.
The compound `O=C(Nc1nc2ccccc2[nH]1)c1ccc2cc(C(=O)Nc3nc4ccccc4[nH]3)ccc2c1` [Compound 6] yielded an activity at 25 µM at E. coli IMPDH enzyme of 90%.
With `Cc1cccc(NC(=O)c2ccc3cc(C(=O)Nc4cccc(C)n4)ccc3c2)n1` [Compound 8], the activity at 10 µM at E. coli IMPDH enzyme came out at 87%.
On to `COc1c(C)c2c(c(O)c1C/C=C(\C)CCC(=O)O)C(=O)OC2` [mycophenolic acid], for which the “fold less potent against bacterial IMPDH versus mammalian IMPDH” value with bacterial IMPDH is above 1000 fold.
`O=C(Nc1nncs1)c1ccc2cc(C(=O)Nc3nncs3)ccc2c1` [Compound 12] yielded an activity at 10 µM on E. coli IMPDH enzyme of 100%.
In the case of `CCOc1cccc2sc(NC(=O)c3cc4ccccc4cc3OC)nc12` [Compound 7], the activity at 25 µM at E. coli IMPDH enzyme was 76%.
